Data as given in ChEMBL document CHEMBL5500403, “Discovery of a Double-Stapled Short Peptide as a Long-Acting HIV-1 Inactivator with Potential for Oral Bioavailability” (J Med Chem, 2024).
The source made the active and inactive calls. The rule behind the calls is not given here. Bridge positions count the residues as written; N and C are the ends. Square brackets hold non-standard residues; d marks the D form. Peptide text beside a SMILES is read from it. S5 = C=CCCC[C@](C)(N)C(=O)O

Legend:
[1] = Toxicity in Sprague-Dawley rat assessed as histopathological change in liver at 50 mg/kg,iv administration measured after 14 days by hematoxylin and eosin staining based assay; format: organism-based; conditions: in vivo, 336 h, time 14 day
[2] = system: Human immunodeficiency virus 1; assay: Antiviral activity against HIV-1 clinical isolate X4-89BZ167 assessed as reduction in viral growth by measuring p24 antigen level incubated for 2 hrs by ELISA; format: functional, organism-based; conditions: Human immunodeficiency virus 1, clinical isolate X4-89BZ167, 2 h
[3] = system: Human immunodeficiency virus 1; assay: Antiviral activity against HIV-1 Bal-R5 infected in human CEMx174 5.25M7 cells assessed as inhibition of viral growth pretreated with virus for 30 mins followed by infection with cells incubated for 72 hrs by ELISA; format: functional, organism-based; conditions: Human immunodeficiency virus 1, Bal-R5, CEMx174 5.25M7
[4] = Cytotoxicity against human MT2 cells; format: toxicity, cell-based
[5] = Toxicity in BALB/c mouse assessed as histopathological change in kidney at 20 mg/kg,iv administration measured after 14 days by hematoxylin and eosin staining based assay; format: organism-based; conditions: in vivo, 336 h, time 14 day
[6] = Toxicity in Sprague-Dawley rat assessed as necrosis in kidney at 50 mg/kg,iv administration measured after 14 days by hematoxylin and eosin staining based assay; format: organism-based; conditions: in vivo, 336 h, time 14 day
[7] = system: Human immunodeficiency virus 1; assay: Antiviral activity against HIV-1 IIIB infected in human MT2 cells assessed as inhibition of viral growth pretreated with virus for 30 mins followed by infection with cells incubated for 72 hrs by ELISA; format: functional, organism-based; conditions: Human immunodeficiency virus 1, IIIB
[8] = Toxicity in male BALB/c mouse assessed as change in body weight at 20 mg/kg,iv administration measured upto 14 days; format: organism-based; conditions: in vivo, 336 h, time < 14 day
[9] = Toxicity in Sprague-Dawley rat assessed as histopathological change in kidney at 50 mg/kg,iv administration measured after 14 days by hematoxylin and eosin staining based assay; format: organism-based; conditions: in vivo, 336 h, time 14 day
[10] = Drug concentration in Sprague-Dawley rat plasma at 10 mg/kg,iv administrated upto 8 days by LC-MS/MS analysis; format: ADME, organism-based; conditions: in vivo, 192 h, time < 8 day
[11] = Toxicity in female BALB/c mouse assessed as change in body weight at 100 mg/kg,iv administration measured upto 14 days; format: organism-based; conditions: in vivo, 336 h, time < 14 day
[12] = system: Human immunodeficiency virus 1; assay: Binding affinity to cytoplasmic LLP1 domain of HIV-1 GP41 assessed as change in entropy by isothermal titration calorimetry
[13] = Toxicity in Sprague-Dawley rat assessed as cell degeneration in kidney at 50 mg/kg,iv administration measured after 14 days by hematoxylin and eosin staining based assay; format: organism-based; conditions: in vivo, 336 h, time 14 day
chymotrypsin = chymotrypsin (Homo sapiens, UniProt P17538+P40313+Q6GPI1+Q99895); assay: Proteolytic stability assessed as Chymotrypsin (unknown origin) mediated compound degradation by measuring parent compound remaining incubated for 2 hrs by LC-MS/MS analysis; format: ADME, protein assay; conditions: read-out: Stability
[14] = Total clearance in Sprague-Dawley rat at 10 mg/kg,iv administration measured upto 9 days by LC-MS/MS analysis; format: ADME, organism-based; conditions: in vivo, 216 h, time < 9 day
[15] = Toxicity in BALB/c mouse assessed as change in serum creatinine level at 20 mg/kg,iv administration measured upto 6 days; format: organism-based; conditions: in vivo, 144 h, time < 6 day
[16] = Proteolytic stability assessed as Pepsin (unknown origin) mediated compound degradation incubated for 4 hrs by LC-MS/MS analysis; format: ADME; conditions: human
[17] = Elimination half life in Sprague-Dawley rat at 1 mg/kg,iv administration measured upto 9 days by LC-MS/MS analysis; format: ADME, organism-based; conditions: in vivo, time < 9 day, read-out: beta t1/2 (converted)
[18] = Drug concentration in Sprague-Dawley rat plasma at 50 mg/kg,po administrated for 15 hrs by LC-MS/MS analysis; format: ADME, organism-based; conditions: in vivo
[19] = Drug concentration in Sprague-Dawley rat plasma at 50 mg/kg,po administrated for 5 days by LC-MS/MS analysis; format: ADME, organism-based; conditions: in vivo, 120 h, time 5 day
proteinase K = assay: Proteolytic stability assessed as proteinase K (unknown origin) mediated compound degradation by measuring parent compound remaining incubated for 4 hrs by LC-MS/MS analysis; format: ADME; conditions: human, read-out: Stability
[20] = system: Human immunodeficiency virus 1; assay: Antiviral activity against HIV-1 IIIB assessed as reduction in viral growth by measuring p24 antigen level incubated for 2 hrs by ELISA; format: functional, organism-based; conditions: Human immunodeficiency virus 1, IIIB
[21] = Drug concentration in Sprague-Dawley rat plasma assessed as fold increase in drug uptake at 10 mg/kg,iv administrated upto 8 days by LC-MS/MS analysis; format: ADME, organism-based; conditions: in vivo, 192 h, time < 8 day
[22] = Toxicity in BALB/c mouse assessed as change in serum ALT level at 20 mg/kg,iv administration measured upto 6 days; format: organism-based; conditions: in vivo, 144 h, time < 6 day
[23] = Toxicity in BALB/c mouse assessed as histopathological change in liver at 20 mg/kg,iv administration measured after 14 days by hematoxylin and eosin staining based assay; format: organism-based; conditions: in vivo, 336 h, time 14 day
[24] = Toxicity in Sprague-Dawley rat assessed as inflammatory cell infiltration in kidney at 50 mg/kg,iv administration measured after 14 days by hematoxylin and eosin staining based assay; format: organism-based; conditions: in vivo, 336 h, time 14 day
SARS-CoV-2 = assay: Antiviral activity against SARS-CoV-2 infected in human Caco-2 cells assessed as inhibition of viral growth at 2000 nM; format: functional, organism-based; conditions: Severe acute respiratory syndrome coronavirus 2
[25] = Toxicity in male BALB/c mouse assessed as change in body weight at 100 mg/kg,iv administration measured upto 14 days; format: organism-based; conditions: in vivo, 336 h, time < 14 day
[26] = Biodistribution in Sprague-Dawley rat lymph node assessed as fold increase in AUC at 1 mg/kg,iv administration measured after 12 days by LC-MS/MS analysis; format: ADME, organism-based; conditions: in vivo, 288 h, time 12 day
[27] = Toxicity in BALB/c mouse assessed as change in serum ALT level at 100 mg/kg,iv administration measured upto 6 days; format: organism-based; conditions: in vivo, 144 h, time < 6 day
[28] = Volume of distribution at steady state in Sprague-Dawley rat at 1 mg/kg,iv administration measured upto 9 days by LC-MS/MS analysis; format: ADME, organism-based; conditions: in vivo, time < 9 day, read-out: Vdss
[29] = Toxicity in Sprague-Dawley rat assessed as inflammatory cell infiltration in liver at 50 mg/kg,iv administration measured after 14 days by hematoxylin and eosin staining based assay; format: organism-based; conditions: in vivo, 336 h, time 14 day
[30] = AUClast in Sprague-Dawley rat at 10 mg/kg,iv administration measured upto 9 days by LC-MS/MS analysis; format: ADME, organism-based; conditions: in vivo, time < 9 day
[31] = AUClast in Sprague-Dawley rat at 1 mg/kg,iv administration measured upto 9 days by LC-MS/MS analysis; format: ADME, organism-based; conditions: in vivo, time < 9 day
[32] = system: Human immunodeficiency virus 1; assay: Binding affinity to cytoplasmic LLP1 domain of HIV-1 GP41 assessed as binding constant by isothermal titration calorimetry
[33] = Stability in human liver microsomes in presence of NADPH by LC-MS/MS analysis; format: ADME, Microsome
[34] = Half life in Sprague-Dawley rat plasma at 50 mg/kg,po administrated for 15 hrs by LC-MS/MS analysis; format: ADME, organism-based
[35] = MRT in Sprague-Dawley rat at 1 mg/kg,iv administration measured upto 9 days by LC-MS/MS analysis; format: ADME, organism-based; conditions: in vivo, time < 9 day
ACH-2 cell line = assay: Cytotoxicity against chidamide reactivated human ACH-2 cell line infected with latent HIV-1 assessed as reduction in cell viability at 1.25 to 5 uM; format: functional, cell-based; conditions: dose 1.25-5 µM

CC(=O)NCC(=O)N[C@@]1(C)CCC/C=C\CCC[C@@](C)(C(=O)N[C@@H](Cc2ccc(O)cc2)C(=O)N[C@@H](CC(C)C)C(=O)N[C@@]2(C)CCC/C=C\CCC[C@@](C)(C(=O)N[C@@H](Cc3ccc(O)cc3)C(=O)N[C@@H](Cc3c[nH]c4ccccc34)C(N)=O)NC(=O)[C@H](CC(C)C)NC(=O)[C@H](CC(C)C)NC(=O)[C@H](CC(N)=O)NC2=O)NC(=O)[C@H](CC(C)C)NC(=O)[C@H](C)NC(=O)[C@H](CCC(=O)O)NC1=O (Ac-G[S5]EAL[S5]YL[S5]NLL[S5]YW-NH2; staple (Z) 2-6, 9-13)
Activity [1]: Non-Toxic
EC50 [2]: 0.0444 µM
IC50 [3]: 0.18 µM
CC50 [4]: 5.07 µM
Activity [5]: Non-Toxic
Activity [6]: Non-Toxic
IC50 [7]: 0.0235 µM
Activity [8]: Non-Toxic
Activity [9]: Non-Toxic
Drug uptake [10]: Active
Activity [11]: Non-Toxic
deltaS [12]: -70.2 cal/mol/deg
Activity [13]: Non-Toxic
remaining at 2 h (chymotrypsin): > 56.8%
CL [14]: 0.2 mL/min/kg
Activity [15]: Non-Toxic
Stability [16]: Stable
half-life [17]: > 70 h
Drug uptake [18]: Active
Drug uptake [19]: Active
remaining at 4 h (proteinase K): 89.6%
EC50 [20]: 0.00821 µM
fold change (FC) [21]: 8.3
Activity [22]: Non-Toxic
Activity [23]: Non-Toxic
Activity [24]: Non-Toxic
Activity (SARS-CoV-2): inactive
Activity [25]: Non-Toxic
fold change (FC) [26]: 10
Activity [27]: Non-Toxic
Vd [28]: 2.32 L/kg
Activity [29]: Non-Toxic
AUC(0-t) at 216 h [30]: 334 µg·h/mL
AUC(0-t) at 216 h [31]: 40.4 µg·h/mL
K [32]: 2.77 10^5/M
Stability [33]: Stable
half-life [34]: 41.2 h
MRT [35]: 71.1 h
Activity (ACH-2 cell line): Active
